# What was measured:
# cells = test: Delivery of small RNAs, mRNAs and albumin via Arg-JBNP; type: cell-based; settings: FIGS. 3A-3E
# Procedure: Multi-functional JBNPs. Multi-functional JBNPs were prepared by mixing a cargo molecule (e.g., RNA, biologically active small molecule, protein) with the multi-functional JBNT at an appropriate molar ratio in nuclease-free water, followed by sonication with a sonicator at 100% amplitude, for 2 min and 30 s, at room temperature. The concentrations of different components are shown as below: c(JBNT)=1 mg/mL; c(siRNA)=5 uM; c(mRNA)=0.05 mg/mL. c(protein)=0.1 mg/mL. The ratios (volume to volume ratio) for each cargo: (4:1 ratio (Arg-JBNT:siRNA), (20:1 ratio Arg-JBNT:mRNA), (3:1 Arg-JBNT: protein).
# Arg-JBNP-siRNA were assembled by mixing Arg-JBNT(1 mg/ml) and siRNA-AF488 (5 uM) in nuclease-free water as ratio of volume to volume of 4:1. Arg-JBNP-mRNA were assembled by mixing Arg-JBNT (1 mg/ml) to Cas9mRNA (0.05 mg/ml) as ratio of volume to volume of 20:1. Arg-JBNP-albumin were assembled by mixing Arg-JBNT (1 mg/ml) to albumin (0.1 mg/ml) as ratio of volume to volume, 3:1. Then mixture of Arg-JBNT and cargoes in nuclease-free water are sonicated with sonicator at 100% amplitude for 2 min and 30 sec.
# [1] = Buffering capacity (acid-base titration), proton sponge effect; type: physicochemical; settings: FIG. 4D
# Procedure: JBNP Characterization. The particles and ζ potential of the JBNPs were measured by dynamic light scattering (Zetasizer) and the morphology was observed by transmission electron microscope (TEM). The get retardation assay was conducted at 0.8% low-melting agarose gel followed by electrophoresis. The UV-Vis absorption spectra were recorded with a NanoDrop One. The buffering capacity of JBNPs and polymers, JBNP and cationic polymers at the same 0.08 μmol were titrated by either adding the 2 μL of 10 mM HCl or 10 mM NaOH.
proton-sponge effect capacity [1],Structure (SMILES),delivery of cargo (cells)
–,CNc1nc2c(c(N)nc(=O)n2CCN[C@@H](CCCNC(=N)N)C(=O)O)c(=O)[nH]1 [ArgJBNTs],"successful delivery of small RNAs, mRNAs, and albumin (protein)"
superior proton-sponge effect capacity,CNc1nc2c(c(N)nc(=O)n2CCN[C@@H](Cc2c[nH]cn2)C(=O)O)c(=O)[nH]1 [Histidine-JBNTs],–

# From patent US20250302762A1, “NANOMATERIAL DELIVERY VEHICLE AND METHOD OF USE THEREOF” (University of Connecticut, priority 2022, published 2025)
